Source: patent US20160074390A1, “HUMAN DOSING OF PHOSPHATASE INHIBITOR” (Lixte Biotechnology, Inc., priority 2014, published 2016)
“And” between values parts separate entries of the source, which are not always exact repeats. Equal entries are not always repeated. Where two headings read alike, the source gives them in different places.

Assays:
Akt = settings: Lu et al. 2009; cited from earlier work
[1] = test system: patients with advanced solid tumors; settings: in vivo
Description: This is a Phase I, open label, multicenter, two-part, dose-escalation study of LB-100 administered intravenously in patients with advanced solid tumors. Two dose regimens are explored. In the first regimen (Part 1), single agent LB-100 is given daily on Days 1 through 3 of every 21 day cycle. In the second regimen (Part 2), docetaxel-naïve patients are treated with LB-100 given daily on Days 1 through 3 in combination with a fixed dose of docetaxel (either 60 mg/m^2 or 75 mg/m^2) given on Day 2 of every 21 day cycle. Once the MTD of single agent LB-100 is reached, 3 additional patients are enrolled in an MTD confirmation cohort. Part 2 enrolls patients once the MTD of single agent LB-100 is determined in Part 1.
The starting dose of L8-100 for Part 1 is 0.25 mg/m^2. The starting dose of LB-100 for Part 2 is 2 dose levels below the MTD determined in Part 1, administered in combination with docetaxel 60 mg/m^2. Once the MTD of LB-100+docetaxel 60 mg/m^2 is determined, the dose of LB-100 is reduced 2 dose levels and administered in combination with docetaxel 75 mg/m^2. The dose of LB-100 is then be escalated to the full LB-100 dose (of the LB-100+docetaxel 60 mg/m^2 MTD) and administered in combination with docetaxel 75 mg/m^2. Once the MTD of the combination of LB-100+docetaxel (either 60 mg/m^2 or 75 mg/m^2) is reached, 3 additional patients are enrolled in an MTD/RD confirmation cohort.
LB-100 is administered in escalating dose levels. Enrollment in each dose cohort proceeds in the standard “3+3” schema. In each cohort, the first patient enrolled completes Cycle 1 treatment and safety monitoring prior to the enrollment of the second and third patients; the second and third patients may be enrolled simultaneously. DLTs are evaluated and recorded during the first 2 cycles of treatment.
Initially, the decision to escalate to the next dose level is be based on the observation of DLT during Cycle 1. If no DLT is observed, escalation proceeds to the next cohort. If a DLT is observed in Cycle 2 in the study, the escalation strategy is evaluated moving forward. Escalation continues until the maximum administered dose (MAD), maximum tolerated dose (MTD) and recommended dose (RD) are determined.
On Days 1, 2 and 3 of each cycle, LB-100 was infused over 15 minutes.
LB-100 was administered daily on Days 1 through 3 of every 21 day cycle to patients at the following dose levels:
Enrollment in each dose cohort will proceed in the standard “3+3” schema where 3 patients are initially enrolled per cohort; Scheme 2. In each cohort, the first patient enrolled will complete Cycle 1 treatment and safety monitoring prior to the enrollment of the second and third patients; the second and third patients may be enrolled simultaneously. Dose limiting toxicities (DLTs) will be evaluated and recorded during the first 2 cycles of treatment. Initially, the decision to escalate to the next dose level will be based on the observation of DLT during Cycle 1. If no DLT is observed, escalation will proceed to the next cohort. Note: if a DLT is observed in Cycle 2 in the study, the escalation strategy will be evaluated moving forward. If, however, DLT is observed in 1 of the 3 patients, an additional 3 patients must be enrolled at that dose. In a cohort of 6, if one patient has DLT, then dose escalation may proceed; if 2 or more patients have DLT, then that dose will be considered the maximum administered dose (MAD) and dose escalation will cease. The MTD is defined as one dose level below the MAD. Once the MTD of single agent LB-100 is reached, 3 additional patients will be enrolled in an MTD confirmation cohort. At least 6 patients must be treated at the MTD to determine the safety of that dose as a basis for the starting dose of LB-100 in Part 2 of this study.
The NCI Common Terminology Criteria for Adverse Events (CTCAE) Version 4.0 will be used to grade toxicity.

TNBC cell lines = experiment: Cytotoxicity against TNBC cells; assay type: cell-based; settings: single agent; present-tense example
Description: LB-100 inhibits PP2A activity and is cytotoxic to TNBC cells. LB-100 synergizes with chemotherapeutic drugs to enhance cytotoxicity against TNBC cells. LB-100 also enhances the effects of chemotherapy in TNBC xenografts. LB-100 chemosensitizes doxorubicin and cisplatin to TNBC cells and/or has a synergistic cytotoxic effect with doxorubicin and/or cisplatin against TNBC cells.
Both doxorubicin (0.2 μg/ml) and cisplatin (2 μg/ml) in combination with LB-100 are cytotoxic to TNBC cell lines. The addition of LB-100 sensitizes TNBC cells to doxorubicin and cisplatin. TNBC cell lines include HCC1599, HCC1937, HCC1599, MDA-MB-468, HCC38, HCC70, HCC1806, HCC1187, DU4475, BT-549, Hs-578T, MDA-MB-231, MDA-MB-436, MDA-MB-157, MDA-MB-453, BT-20, and HCC1395.

[2] = test system: human glioblastoma cell line, U373; settings: simultaneous exposure, US 2010/0029683 A1; cited from earlier work
in vivo = settings: beagle, dog, 0.15 mg/kg
[3] = Toxicokinetics in GLP repeat-dose rat study; settings: Sprague Dawley, in vivo, iv, 0.75 mg/kg/day, study Day 4
Description: These changes were reversible. […] Inflammation was often accompanied by mesothelial hypertrophy.

[4] = Non-GLP dose ranging toxicity study, daily IV infusion x4 days (NCI); settings: male, Fischer, rat, in vivo, iv
Description: (§1) In a non-GLP dose ranging study in male Fischer rats conducted by the NCI, LB-100 was administered by daily intravenous (IV) infusion at 0.5, 0.75 and 1.5 mg/kg/day for 4 consecutive days.

male Fischer rats = experiment: as above
Description: as §1

[5] = test system: male and female Sprague Dawley rats; experiment: GLP repeat-dose toxicity study, daily IV slow bolus x5 days
beagle dogs = experiment: Non-GLP dose ranging toxicity study, IV every 4 days x4 doses; assay type: in vivo, dog
[6] = Solubility and stability of LB-100 solution; assay type: physicochemical; settings: for stability of formulation: in monosodium glutamate, pH 10.5
Description: LB-100 is a water soluble enantiomeric zwitterion provided as a sterile solution for intravenous administration. […] Phosphate buffered saline (PBS) was used as the vehicle for LB-100 administration in preclinical efficacy studies and sodium bicarbonate 4.2% for injection was used as the vehicle for GLP toxicity studies.

[7] = test system: male and female beagle dogs; experiment: GLP repeat dose toxicity study, IV daily x5 days
Description: In the GLP repeat dose dog study, LB-100 was administered by intravenous injection (slow bolus push) at dose levels of 0.15, 0.30, and 0.75 mg/kg daily for 5 consecutive days.
Multilead (I, II, III, aVR, aVL, aVF, and V2) ECGs were recorded for all animals prior to randomization (Day −8) and for all surviving animals on Day 4 (recorded approximately 2 to 4 hours following dose administration) and Day 27.
Blood pressure (systolic, diastolic, and mean arterial pressure) data were recorded for all animals once during the pretest period (Day −8) and for all surviving animals on study Day 4 (recorded approximately 2 to 4 hours following dose administration) and Day 27.

advanced solid tumors = experiment: Phase I Part 1 single agent LB-100: tumor response (RECIST 1.1); assay type: in vivo, human
Description: Two dose regimens are explored.
Although response is not the primary endpoint of this study, patients with measurable disease will be assessed at baseline and during the study by standard criteria. Patients should be reevaluated after receiving 2 cycles of study therapy and then after every 2 cycles thereafter. In the event objective response (PR or CR) is noted, changes in tumor measurements must be confirmed by repeat assessments that should be performed at least 4 weeks after the criteria for response are first met.
Response and progression will be evaluated in this study using the international criteria (version 1.1) proposed by the Response Evaluation Criteria in Solid Tumors (RECIST) Committee [Eur J Cancer. 45 (2009) 228-247]. Changes in only the largest diameter (unidimensional measurement) of the tumor lesions are used in the RECIST 1.1 guidelines. Note: Lesions are either measurable or non-measurable using the criteria provided below.
• Complete Response (CR): Disappearance of all target lesions.
The patient's best overall response assignment will depend on findings of both target and non-target disease and will also take into consideration the appearance of new lesions. It is assumed that at each protocol-specified time point, a response assessment occurs. Table provides a summary of the overall response status calculation at each time point for patients who have measurable disease at baseline.
In the case of SD, follow-up measurements must have met the SD criteria at least once after study entry at a minimum interval at 5 weeks.

[8] = test system: HeLa cells, OS-17, MKN28, MKN45, MGC803, and SGC7901 cells; experiment: Growth of Mad2-overexpressing cell lines in vitro; assay type: cell-based, human; settings: all cell lines; present-tense example
Description: Compound LB-100 inhibits PP2A phosphatase in cancer cells which in turn induces Mad-2 phosphorylation while suppressing Mad-2 protein levels. In order to characterize the effects of LB-100 on cancers overexpressing Mad2, tumor cell lines carrying Mad2-overexpressing mutations are tested. LB-100 inhibits the growth of the cancer cells in in vitro assays. […] Exposure to LB-100 reduces the expression of Mad-2 in the cells.
Mad2-overexpressing HeLa cells (HeLa Mad-2 O/E), osteosarcoma human cells (OS-17) and gastric cell lines (MKN28, MKN45, MGC803, and SGC7901) express high levels of Mad2 (Yu, L. et al. 2010). LB-100 inhibits the growth of the HeLa cells, OS-17, MKN28, MKN45, MGC803, and SGC7901 cells in vitro. […] Exposure to LB-100 reduces the expression of Mad-2 in all cell lines.

For CCN1CCCC1CNC(=O)c1cc(S(=O)(=O)CC)c(NC)cc1OC (stereo not drawn) [LB-102], the “phosphorylation of Akt” value (Akt) is given as “increased”.

For CN1CCN(C(=O)C2C(C(=O)O)[C@H]3CC[C@@H]2O3)CC1 (mixture of isomers) [LB-100, 3-(4methylpiperazine-carbonyl)-7-oxalobicyclo[2.2.1]heptane-2-carboxylic acid], the adverse events ([1]; human) was “No adverse events attributable to LB-100”, the dyspnea ([1]; human) was “grade 1” and the tolerability ([1]; human) was “without any symptoms attributable to LB-100”. The “vomiting, related to LB-100” value ([1]; human) was “grade 3”, the “adverse events attributed to a bleeding rectal mass” value ([1]; human, 1 cycle) was “grade 3 anemia and grade 2 weakness” and the “neuropathy, possibly related to LB-100” value ([1]; human, 4 cycles) was “Grade 1”. The adverse events [1] was “No new adverse events”, the dose limiting toxicity [1] was “no dose limiting toxicity” and the “relation of pulmonary embolism to treatment” value [1] was “not related”. For the same compound, the “cytotoxicity to TNBC cells” value (TNBC cell lines) was “cytotoxic”, the “cytotoxic effect of cisplatin” value [2] was “enhanced” and the “cytotoxic effect of doxorubicin” value [2] was “enhanced”. The “cytotoxic effect of taxol” value [2] was “enhanced”, the “cytotoxic effect of temozolomide” value [2] was “enhanced” and the AUC(0-t) (in vivo; female) was 335 ng·h/mL. It also gave an AUC(0-t) (in vivo; male) of 267 ng·h/mL, an AUC(0-t) ([3]; female, females) of 691 ng·h/mL and a C0 ([3]; female, females) of 2350 ng/mL. For the same compound, the AUC(0-t) ([3]; male, males) was 596 ng·h/mL, the C0 ([3]; male, males) was 1800 ng/mL and the MTD at 4 days [4] was 0.75 mg/kg/day. The nephrosis severity (male Fischer rats; 0.75 mg/kg/day) was “mild”, the “no-observed-adverse-effect-level (NOAEL)” value (male Fischer rats; 0.5, 0.75 and 1.5 mg/kg/day x4 days) was “not established” and the heart toxicity (male Fischer rats; 0.75 and 1.5 mg/kg/day groups) was “epicardial hyperplasia with inflammation primarily on the epicardium of the atria”. The MTD (male Fischer rats; IV daily for 4 days, converted dose) was “about 4.5 mg/m^2”, the unscheduled deaths (male Fischer rats; any treatment group) was “no unscheduled deaths” and the dose-limiting toxicities (male Fischer rats; rat, in vivo, iv) was “Kidney, heart, femoral bone, liver and urinary bladder toxicity”. The “epicardium and subepicardium of atria” value ([5]; 0.5, 0.75, 1.25 mg/kg/day males, 1.25 mg/kg/day females) was “Minimal to mild subacute inflammation”, the kidney finding ([5]; 0.75 and 1.25 mg/kg/day, males and females) was “adverse, test article-related nephrosis of the kidneys” and the “test article-related effects on urinalysis parameters” value ([5]; Day 5, reversible) was “observed in all treatment groups”. For the same compound, the “severely toxic dose in 10% of the animals (STD 10)” value ([5]; daily IV x5 days) was 0.75 mg/kg/day, the “possible test article-related clinical observation” value (beagle dogs; 1.0 mg/kg, one female, study Day 13) was “intermittent tremors” and the survival (beagle dogs; 0.1-1.0 mg/kg) was “no LB-100-related effects on survival”. For the same compound, the “body weight gain and food consumption” value (beagle dogs; 0.5 and 1.0 mg/kg, females) was “lower body weight gains and food consumption”, the “no-observed-effect level (NOEL)” value (beagle dogs; IV every 4 days x4 doses) was 0.25 mg/kg and the signs of toxicity (beagle dogs; dog, in vivo, 1 mg/kg) was “almost no signs of toxicity”. The water solubility ([6]; enantiomeric zwitterion) was “water soluble”, the stability of formulation ([6]; refrigerated temperatures) was “at least 8 hours” and the stability of formulation ([6]; −20° C.) was “stable for months”. For the same compound, the “racemization of separated enantiomers” value ([6]; in solution) was “racemize rapidly”, the tolerability ([7]; 0.15 mg/kg/day) was “well tolerated” and the “test article-related lethality, animals” value ([7]; 0.75 mg/kg/day group, before fourth dose) was 2 of 10. For the same compound, the “Highest Non-Severely Toxic Dose (HNSTD)” value ([7]; daily IV x5 days) was 0.15 mg/kg, the ECGs ([7]; dog, in vivo) was “within normal limits” and the blood pressure ([7]; dog, in vivo) was “unaffected”. The “duration of stable disease” value (advanced solid tumors; Patient 10, pancreatic cancer, 0.83 mg/m^2) was 39 weeks, the “time remained stable since starting LB-100” value (advanced solid tumors; Patient 10, pancreatic cancer, interim (8 cycles)) was 6 months and the “cycles on treatment with stable disease” value (advanced solid tumors; Patient 17, metastatic thymoma, DL5 1.75 mg/m^2) was 7 cycles and 8 cycles. For the same compound, the “cycles of stable disease” value (advanced solid tumors; breast, ovarian, carcinoid and testicular cancer patients) was 4-6 cycles and the cytotoxicity [8] was “Dose-dependent cytotoxicity”.
